According to patent US12145947B2, “Pyrimidine based modulators and uses thereof” (Quanta Therapeutics, Inc., priority 2022, dated 2024):

Legend:
[1] = biological target: T1, GST-tagged KRAS-G12D (2-169) (Homo sapiens, UniProt P01116, G12D); experiment: Nucleotide exchange assay (NEA), SOS-mediated, HTRF, KRAS G12D; type: biochemical; conditions: Table 4; IC50 extracted at 30 min
T1 construct: GST-tagged KRAS-G12D (2-169, Reaction Biology, MSC-11-539); purchased Reaction Biology MSC-11-539 (KRAS G12D); MSC-11-502 (SOS1cat)
T1 sequence (P01116 2-169 isoform P01116-2 G12D): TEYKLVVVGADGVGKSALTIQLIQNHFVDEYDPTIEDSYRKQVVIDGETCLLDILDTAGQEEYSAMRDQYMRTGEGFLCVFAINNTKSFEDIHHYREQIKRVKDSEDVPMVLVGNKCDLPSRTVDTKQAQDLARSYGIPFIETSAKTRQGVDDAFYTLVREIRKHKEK
In short: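 IC50 values come from 4-parameter fits at the 30 min time point of an SOS-driven exchange read by HTRF, normalised to DMSO (0%) and SOS-free blank (100%). Final reaction: 5 nM GST-KRAS-G12D (2-169), 20 nM SOScat, 150 nM fluorescent GTP-DY-647P1, after 1 h RT compound preincubation with KRAS and Tb-cryptate anti-GST.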

KRAS G12D/RAF1 = biological target: T2, KRAS G12D/RAF1 (Homo sapiens, UniProt P01116, G12D); experiment: Protein-protein interaction (PPI) HTRF assay KRAS G12D/RAF1; type: binding; conditions: Table 4
T2 construct: His6-MBP (N, cleaved yes); made in house; host or cells: E. coli
T2 sequence (P01116 with tags, fused parts or gaps isoform P01116-2 G12D): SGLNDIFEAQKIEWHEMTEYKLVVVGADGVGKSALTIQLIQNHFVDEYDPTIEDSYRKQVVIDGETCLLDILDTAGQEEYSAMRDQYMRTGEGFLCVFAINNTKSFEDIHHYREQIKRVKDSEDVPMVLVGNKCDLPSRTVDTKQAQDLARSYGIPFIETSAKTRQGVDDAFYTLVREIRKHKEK
In short: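 HTRF pairing of His-tagged RAF1 (52-131) plus Tb-cryptate donor with GppNHp-exchanged biotin-RAS (KRAS 1-169 wt/G12D/G12V, NRAS wt) plus streptavidin-d2 acceptor; compound sits 30 min with RAS first, then 1 h RT with RAF1. IC50 derived from 665/615 ratio, untagged RAF1 defining full inhibition.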

| Compound | IC50 [1] [µM] | IC50 (KRAS G12D/RAF1) [µM] |
| --- | --- | --- |
| N#Cc1c(N2C[C@H]3CC[C@@H](C2)N3)nc(OCC2(CN3C[C@@H]4C[C@H]3CO4)CC2)nc1N1CC2(CCc3sc(N)c(C#N)c32)C1 [Compound 89, 2-amino-1′-[5-cyano-6-[(1R,5S)-3,8-diazabicyclo[3.2.1]octan-3-yl]-2-[[1-[[(1S,4S)-2-oxa-5-azabicyclo[2.2.1]heptan-5-yl]methyl]cyclopropyl]methoxy]pyrimidin-4-yl]spiro[5,6-dihydrocyclopenta[b]thiophene-4,3′-azetidine]-3-carbonitrile] | < 0.01 | 0.1 to 1 |
| N#Cc1c(N2CCCn3nc(-c4ccccn4)c(Cl)c3C2)nc(OCC2(CN3CCOCC3)CC2)nc1N1CC2(CCc3sc(N)c(C#N)c32)C1 [Compound 75, 2-amino-1′-[6-[3-chloro-2-(2-pyridyl)-4,6,7,8-tetrahydropyrazolo[1,5-a][1,4]diazepin-5-yl]-5-cyano-2-[[1-(morpholinomethyl)cyclopropyl]methoxy]pyrimidin-4-yl]spiro[5,6-dihydrocyclopenta[b]thiophene-4,3′-azetidine]-3-carbonitrile] | < 0.01 | 0.1 to 1 |
| N#Cc1c(N2C[C@H]3CC[C@@H](C2)N3)nc(OCC2(CN3CC[S+]([O-])CC3)CC2)nc1N1CC2(CCc3sc(N)c(C#N)c32)C1 [Compound 71, 2-amino-1′-[5-cyano-6-[(1R,5S)-3,8-diazabicyclo[3.2.1]octan-3-yl]-2-[[1-[(1-oxo-1,4-thiazinan-4-yl)methyl]cyclopropyl]methoxy]pyrimidin-4-yl]spiro[5,6-dihydrocyclopenta[b]thiophene-4,3′-azetidine]-3-carbonitrile] | < 0.01 | 1 to 10 |
| N#Cc1c(N2CCCCCC2)nc(OC[C@@]23CCCN2C[C@H](F)C3)nc1N1CC2(CCc3sc(N)c(C#N)c32)C1 [Compound 19, 2-amino-1′-[6-(azepan-1-yl)-5-cyano-2-[[(2R)-2-fluoro-1,2,3,5,6,7-hexahydropyrrolizin-8-yl]methoxy]pyrimidin-4-yl]spiro[5,6-dihydrocyclopenta[b]thiophene-4,3′-azetidine]-3-carbonitrile] | 0.01 to 0.1 | 1 to 10 |
| N#Cc1c(N2C[C@H]3CC[C@@H](C2)N3)nc(OCC2(CN3CCOCC3)CC2)nc1N1CC2(CSc3sc(N)c(C#N)c32)C1 [Compound 73, 5-amino-1′-[5-cyano-2-[[1-(morpholinomethyl)cyclopropyl]methoxy]-6-[(1R,5S)-3,8-diazabicyclo[3.2.1]octan-3-yl]pyrimidin-4-yl]spiro[2H-thieno[2,3-b]thiophene-3,3′-azetidine]-4-carbonitrile] | < 0.01 | 0.1 to 1 |
| Cc1nc(-c2nn3c(c2Cl)CN(c2nc(OC[C@@]45CCCN4C[C@H](F)C5)nc(N4CC5(CCc6sc(N)c(C#N)c65)C4)c2C#N)CCC3)no1 [Compound 46, 2-amino-1′-[6-[3-chloro-2-(5-methyl-1,2,4-oxadiazol-3-yl)-4,6,7,8-tetrahydropyrazolo[1,5-a][1,4]diazepin-5-yl]-5-cyano-2-[[(2R,8S)-2-fluoro-1,2,3,5,6,7-hexahydropyrrolizin-8-yl]methoxy]pyrimidin-4-yl]spiro[5,6-dihydrocyclopenta[b]thiophene-4,3′-azetidine]-3-carbonitrile] | < 0.01 | 1 to 10 |
| CO[C@H]1CN(CC2(COc3nc(N4C[C@H]5CC[C@@H](C4)N5)c(C#N)c(N4CC5(CCc6sc(N)c(C#N)c65)C4)n3)CC2)C[C@@H]1F [Compound 81, 2-amino-1′-[5-cyano-6-[(1R,5S)-3,8-diazabicyclo[3.2.1]octan-3-yl]-2-[[1-[[(3S,4S)-3-fluoro-4-methoxy-pyrrolidin-1-yl]methyl]cyclopropyl]methoxy]pyrimidin-4-yl]spiro[5,6-dihydrocyclopenta[b]thiophene-4,3′-azetidine]-3-carbonitrile] | < 0.01 | 1 to 10 |
| C[C@@]1(O)CCCN(c2nc(OC[C@@]34CCCN3C[C@H](F)C4)nc(N3CC4(CCc5sc(N)c(C#N)c54)C3)c2C#N)C1 [Compound 27, 2-amino-1′-[5-cyano-2-[[(2R,8S)-2-fluoro-1,2,3,5,6,7-hexahydropyrrolizin-8-yl]methoxy]-6-[(3R)-3-hydroxy-3-methyl-1-piperidyl]pyrimidin-4-yl]spiro[5,6-dihydrocyclopenta[b]thiophene-4,3′-azetidine]-3-carbonitrile] | 0.01 to 0.1 | 1 to 10 |
| N#Cc1c(N)sc2c1C1(CC2)CN(c2nc(OC[C@@]34CCCN3C[C@H](F)C4)nc(N3CCC[C@]4(C3)NC(=O)NC4=O)c2F)C1 [Compound 7, 2-amino-1′-[6-[(5R)-2,4-dioxo-1,3,9-triazaspiro[4.5]decan-9-yl]-5-fluoro-2-[[(2R,8S)-2-fluoro-1,2,3,5,6,7-hexahydropyrrolizin-8-yl]methoxy]pyrimidin-4-yl]spiro[5,6-dihydrocyclopenta[b]thiophene-4,3′-azetidine]-3-carbonitrile] | < 0.01 | 0.1 to 1 |
| CC(=O)c1nn2c(c1Cl)CN(c1nc(OC[C@@]34CCCN3C[C@H](F)C4)nc(N3CC4(CCc5sc(N)c(C#N)c54)C3)c1C#N)CCC2 [Compound 13, 1′-[6-(2-acetyl-3-chloro-4,6,7,8-tetrahydropyrazolo[1,5-a][1,4]diazepin-5-yl)-5-cyano-2-[[(2R,8S)-2-fluoro-1,2,3,5,6,7-hexahydropyrrolizin-8-yl]methoxy]pyrimidin-4-yl]-2-amino-spiro[5,6-dihydrocyclopenta[b]thiophene-4,3′-azetidine]-3-carbonitrile] | < 0.01 | 1 to 10 |
| N#Cc1c(N2CC3(CCc4sc(N)c(C#N)c43)C2)nc(OC[C@@]23CCCN2C[C@H](F)C3)nc1N1CCC[C@]2(C1)NC(=O)NC2=O [Compound 11, 2-amino-1′-[5-cyano-6-[(5R)-2,4-dioxo-1,3,9-triazaspiro[4.5]decan-9-yl]-2-[[(2R,8S)-2-fluoro-1,2,3,5,6,7-hexahydropyrrolizin-8-yl]methoxy]pyrimidin-4-yl]spiro[5,6-dihydrocyclopenta[b]thiophene-4,3′-azetidine]-3-carbonitrile] | < 0.01 | 0.1 to 1 |
| CN(C)C(=O)c1nn2c(c1Cl)CN(c1nc(OC[C@@]34CCCN3C[C@H](F)C4)nc(N3CC4(CCc5sc(N)c(C#N)c54)C3)c1F)CCC2 [Compound 9, 5-[6-(2-amino-3-cyano-spiro[5,6-dihydrocyclopenta[b]thiophene-4,3′-azetidine]-1′-yl)-5-fluoro-2-[[(2R,8S)-2-fluoro-1,2,3,5,6,7-hexahydropyrrolizin-8-yl]methoxy]pyrimidin-4-yl]-3-chloro-N,N-dimethyl-4,6,7,8-tetrahydropyrazolo[1,5-a][1,4]diazepine-2-carboxamide] | < 0.01 | 1 to 10 |
| CN(C)CC1(COc2nc(N3CCCn4nc(C(=O)N(C)C)c(Cl)c4C3)c(C#N)c(N3CC4(CCCc5sc(N)c(C#N)c54)C3)n2)CC1(F)F (centres unmarked) [Compound 96, 5-[6-(2-amino-3-cyano-spiro[6,7-dihydro-5H-benzothiophene-4,3′-azetidine]-1′-yl)-5-cyano-2-[[1-[(dimethylamino)methyl]-2,2-difluoro-cyclopropyl]methoxy]pyrimidin-4-yl]-3-chloro-N,N-dimethyl-4,6,7,8-tetrahydropyrazolo[1,5-a][1,4]diazepine-2-carboxamide] | < 0.01 | 1 to 10 |
